From patent US7745428B2, “Imidazo[1,2-A]pyridine having anti-cell-proliferation activity” (AstraZeneca AB, priority 2005, dated 2010)

Biological target: T1, CDK2/Cyclin E (Homo sapiens, UniProt P24941)
T1 construct: The open reading frames of CDK2 and Cyclin E were isolated; made in house; host or cells: Sf21 (Spodoptera frugiperda) insect cells, baculovirus co-infection; substrate in E. coli BL21 (DE3) pLysS
Assay: in vitro kinase assay (Scintillation Proximity Assay), CDK2/Cyclin E, GST-Rb substrate
Format: biochemical
Details: in-vitro SPA kinase assay, 0.2 μM ATP, room temperature, 60 minutes; read-out: CDK2 inhibitory activity (CDK2 enzyme)
Procedure: The compounds were tested in an in vitro kinase assay in 96 well format using Scintillation Proximity Assay (SPA—obtained from Amersham) for measuring incorporation of [γ-33-P]-Adenosine Triphosphate into a test substrate (GST-Retinoblastoma protein; GST-Rb). In each well was placed the compound to be tested (diluted in DMSO and water to correct concentrations) and in control wells either roscovitine as an inhibitor control or DMSO as a […] control.
Approximately 0.2 μl of CDK2/Cyclin E partially-purified enzyme (amount dependent on enzyme activity) diluted in 25 μl incubation buffer was added to each well then 20 μl of GST-Rb/ATP/ATP33 mixture (containing 0.5 μg GST-Rb and 0.2 μM ATP and 0.14 μCi[γ-33-P]-Adenosine Triphosphate in incubation buffer), and the resulting mixture shaken gently, then incubated at room temperature for 60 minutes. […]
The plates were sealed with Topseal-S plate sealers, left for two hours then spun at 2500 rpm, 1124×g., for 5 minutes. The plates were read on a Topcount for 30 seconds per well. […]
The open reading frames of CDK2 and Cyclin E were isolated by reverse transcriptase-PCR using HeLa cell and activated T cell mRNA as a template and cloned into the insect expression vector pVL1393 (obtained from Invitrogen 1995 catalogue number: V1392-20). […]

CN1CCN(C(=O)c2ccc(Nc3nccc(-c4cnc5ccccn45)n3)cc2)CC1 [Example 2, [4-(4-Imidazo[1,2-a]pyridin-3-yl-pyrimidin-2-ylamino)-phenyl]-(4-methyl-piperazin-1-yl)-methanone]
IC50: 0.09 µM
